# Data as given in the supplement of paper PMC5908809.
# How the values were obtained:
# Experiment in all cases: relative IC50 (inflection point of fitted viability curve, relative to fitted max inhibition); higher = less sensitive
# Conditions in all cases: 72 h
# [1] = test system: DERL-7 (IL-2 2.5 ng/mL)
# Description: (§1)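 Drug sensitivity and resistance testing: 5 concentrations over a 10,000-fold range, 72 h at 37 °C, viability by CellTiter-Glo normalised to DMSO and benzethonium chloride controls. IC50 is the inflection point of a logistic fit (min fixed at 0, max fitted), so it is relative to the fitted maximal inhibition. Kept only where fitted max inhibition is at least 50%.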
# [2] = test system: NKL (IL-2 2.5 ng/mL)
# Description: as §1
# [3] = test system: IMC-1 (IL-2 20 ng/mL)
# Description: as §1
# [4] = test system: NK-YS (IL-2 2.5 ng/mL)
# Description: as §1
# [5] = test system: NK-92 (IL-2 2.5 ng/mL)
# Description: as §1
# [6] = test system: KHYG-1 (IL-2 2.5 ng/mL)
# Description: as §1
# [7] = test system: YT (IL-2 2.5 ng/mL)
# Description: as §1
# [8] = test system: SNK-6 (IL-2 2.5 ng/mL)
# Description: as §1
# [9] = test system: KAI3 (IL-2 2.5 ng/mL)
# Description: as §1
# [10] = test system: normal primary NK cells, pool 1 (3 donors), resting (IL-2 0 ng/mL)
# Description: as §1
# [11] = test system: normal primary NK cells, pool 2 (3 donors) (IL-2 2.5 ng/mL)
# Description: as §1
Compound,relative IC50 [1] [nM],relative IC50 [2] [nM],relative IC50 [3] [nM],relative IC50 [4] [nM],relative IC50 [5] [nM],relative IC50 [6] [nM],relative IC50 [7] [nM],relative IC50 [8] [nM],relative IC50 [9] [nM],relative IC50 [10] [nM],relative IC50 [11] [nM]
CCNC(=O)Nc1ccc(-c2nc3c(c(N4CCOC[C@@H]4C)n2)CCN(C2COC2)C3)cc1 [RG-7603],156,185,> 2500,–,–,–,–,–,–,–,–
CNCc1ccc(-c2[nH]c3cc(F)cc4c3c2CCNC4=O)cc1 [Rucaparib],–,438,–,2000,–,–,–,–,–,–,–
CCc1c(C(=O)C(N)=O)c2c(OCC(=O)O)cccc2n1Cc1ccccc1 [Varespladib],–,–,> 10000,–,–,–,–,–,–,–,–
COc1ccc(COc2cc3oc(=O)c4cc(C(C)O)ccc4c3cc2OC)cc1 (stereo not drawn) [Palomid-529],–,–,–,–,1280,1960,–,–,–,–,–
CC[C@@H]1C(=O)N(C)c2cnc(Nc3ccc(C(=O)N[C@H]4CC[C@H](N5CCN(CC6CC6)CC5)CC4)cc3OC)nc2N1C(C)C [Volasertib],19.6,36.2,30,24.3,12.6,28.3,29,6.44,26.5,–,–
CNc1nc(-c2ccc3c(N)n[nH]c3c2)cc(N2C[C@@H](C(=O)NC3CCCCC3)CC[C@H]2C)n1,248,–,> 10000,–,–,–,–,> 10000,–,–,–
C#Cc1cccc(Nc2ncnc3cc(OCCOC)c(OCCOC)cc23)c1 [Erlotinib],–,–,–,–,–,–,–,–,1300,3360,–
Nc1cccc2c1C(=O)N(C1CCC(=O)NC1=O)C2=O (stereo not drawn) [Pomalidomide],–,–,> 10000,> 10000,> 10000,> 10000,> 10000,–,> 10000,> 10000,–
O=C(NOCC1CC1)c1ccc(F)c(F)c1Nc1ccc(I)cc1Cl,1310,153,2220,1650,3220,851,1850,3940,608,–,–
O=c1ncn2nc(Sc3ccc(F)cc3F)ccc2c1-c1c(Cl)cccc1Cl [VX 745],–,719,–,–,–,–,–,–,779,–,–
Nc1cc(F)ccc1NC(=O)/C=C/c1cnn(C/C=C/c2ccccc2)c1 [RGFP966],1530,1350,–,–,1680,–,–,1460,1940,–,–
Cc1c(C(=O)Nc2ccc(N3C[C@@H](C)O[C@@H](C)C3)nc2)cccc1-c1ccc(OC(F)(F)F)cc1 [Sonidegib],–,–,2250,–,1150,–,–,–,–,–,–
O=C(c1cc(Cc2n[nH]c(=O)c3ccccc23)ccc1F)N1CCN(C(=O)C2CC2)CC1 [Olaparib],–,237,1610,1620,1560,2020,–,1670,1260,–,–
CC[C@H](CO)Nc1nc(NCc2ccccc2)c2ncn(C(C)C)c2n1 [Seliciclib],–,–,–,–,–,–,1850,–,2380,–,–
C[C@@H]1CN(Cc2ccc(F)cc2)[C@@H](C)CN1C(=O)c1cc2c(C(=O)C(=O)N(C)C)cn(C)c2cc1Cl [Talmapimod],–,–,–,–,–,> 10000,–,> 10000,–,–,–
COc1ccc(-c2ccc3c(N4CCOC[C@@H]4C)nc(N4CCOC[C@@H]4C)nc3n2)cc1CO [AZD8055],21.7,5.08,–,77.3,121,135,55.6,16.3,10.3,–,–
Clc1ccccc1C(c1ccccc1)(c1ccccc1)n1cccn1 [TRAM-34],–,–,–,–,–,–,–,–,–,> 1000,–
COc1cc2c(Oc3ccc(NC(=O)C4(C(=O)Nc5ccc(F)cc5)CC4)cc3F)ccnc2cc1OCCCN1CCOCC1 [Foretinib],369,–,–,191,–,–,–,–,–,–,–
CN1CCN(CCOc2cc(OC3CCOCC3)c3c(Nc4c(Cl)ccc5c4OCO5)ncnc3c2)CC1 [Saracatinib],1590,–,3200,2260,1590,3140,1200,–,2110,1620,–
C[C@@H](Oc1cc(-c2cnn(C3CCNCC3)c2)cnc1N)c1c(Cl)ccc(F)c1Cl [Crizotinib],–,–,–,–,–,–,–,> 1000,–,–,–
Nc1ccn([C@@H]2O[C@H](CO)[C@@H](O)C2(F)F)c(=O)n1 [Gemcitabine],10.9,0.73,3.08,4.67,2.77,2.14,15.3,6.48,5.17,–,–
CC(C)n1nc(-c2ccc3oc(N)nc3c2)c2c(N)ncnc21 [INK128],15.1,8.91,–,51,21.7,124,28.2,–,22.8,–,–
COc1ccc(S(=O)(=O)Nc2cccnc2Nc2ccc(O)cc2)cc1 [ABT-751],294,381,283,135,122,196,207,76.1,243,–,–
COc1cc2nccc(Oc3ccc(NC(=O)NC4CC4)c(Cl)c3)c2cc1C(N)=O [Lenvatinib],–,–,–,–,–,–,–,> 2500,–,–,> 2500
CCC1=C[C@@H]2CN(C1)Cc1c([nH]c3ccccc13)[C@@](C(=O)OC)(c1cc3c(cc1OC)N(C)[C@H]1[C@@](O)(C(=O)OC)[C@H](OC(C)=O)[C@]4(CC)C=CCN5CC[C@]31[C@@H]54)C2 [Vinorelbine],5.07,3.89,3.26,5.98,23.2,8.26,7.29,2.95,7.28,1460,–
CC(C)C[C@H](NC(=O)[C@@H](COC(C)(C)C)NC(=O)[C@H](Cc1ccc(O)cc1)NC(=O)[C@H](CO)NC(=O)[C@H](Cc1c[nH]c2ccccc12)NC(=O)[C@H](Cc1cnc[nH]1)NC(=O)[C@@H]1CCC(=O)N1)C(=O)N[C@@H](CCCNC(=N)N)C(=O)N1CCC[C@H]1C(=O)NNC(N)=O [Goserelin],–,–,–,–,–,–,–,> 10000,–,–,–

Compound,relative IC50 [1] [nM],relative IC50 [2] [nM],relative IC50 [3] [nM],relative IC50 [4] [nM],relative IC50 [5] [nM],relative IC50 [6] [nM],relative IC50 [7] [nM],relative IC50 [8] [nM],relative IC50 [9] [nM],relative IC50 [10] [nM],relative IC50 [11] [nM]
CCn1nnc2c(N3CCOCC3)nc(-c3ccc(NC(=O)Nc4ccc(C(=O)N5CCN(C)CC5)cc4)cc3)nc21 [PKI-402],89.1,97.1,–,154,428,316,208,210,90.9,–,–
O=C(Nc1c[nH]nc1-c1nc2ccc(CN3CCOCC3)cc2[nH]1)NC1CC1 [AT9283],41.1,85.5,78,41.9,65.8,47.2,135,39.7,69.8,> 1000,–
Nc1cccc2c1CN(C1CCC(=O)NC1=O)C2=O (stereo not drawn) [Lenalidomide],> 100000,–,–,–,–,–,–,3460,17100,6060,–
Cc1ccc(C(=O)N(CCCN)[C@@H](c2oc3cc(Cl)ccc3c(=O)c2Cc2ccccc2)C(C)C)cc1,21.8,5.2,3.17,3.75,20.9,3.04,24.2,4.13,10.9,–,–
Cn1nnc2c(C(N)=O)ncn2c1=O [Temozolomide],–,25700,15800,–,–,–,–,1610,–,> 100000,–
C[C@]12CC[C@H](O)CC1=CC[C@@H]1[C@@H]2CC[C@]2(C)C(c3cccnc3)=CC[C@@H]12 [Abiraterone],–,–,–,–,–,–,–,> 5000,–,–,–
NC(=O)c1cccc2cn(-c3ccc([C@@H]4CCCNC4)cc3)nc12 [Niraparib],2170,219,1800,1490,1920,2230,–,3140,1580,–,–
C[C@@H]1COC(Nc2ccc3ncnc(Nc4ccc(OCc5nccs5)c(Cl)c4)c3c2)=N1 [Varlitinib],–,–,–,–,–,–,–,–,–,> 10000,–
CNC(=O)c1ccc(C)c(-n2c(C)cc(OCc3ccc(F)cc3F)c(Br)c2=O)c1,–,–,–,–,–,–,–,> 1000,–,–,–
CS(=O)(=O)N1CCc2c(-c3cnc(N)nc3)nc(N3CCOCC3)nc21,1000,451,–,940,316,–,1290,–,384,–,–
CCc1cc(Nc2nccc(-c3c(-c4ccc(OC)c(C(=O)Nc5c(F)cccc5F)c4)nc4ccccn34)n2)c(OC)cc1N1CCC(N2CCN(S(C)(=O)=O)CC2)CC1,–,> 10000,> 10000,–,–,> 10000,–,> 10000,–,–,–
COc1ccccc1S(=O)(=O)Nc1ccc2c(c1)CN(C)C(=O)N2 [PFI-1],1080,1080,2970,1310,–,1640,2310,–,–,–,1780
O=C(CCBr)N1CCN(C(=O)CCBr)CC1 [Pipobroman],–,–,–,–,–,–,–,> 10000,–,–,–
CON(C)C(=O)N1N=C(c2cc(F)ccc2F)S[C@@]1(CCCN)c1ccccc1 [Filanesib],–,–,3.15,–,–,–,–,–,–,–,–
Cn1cc(-c2ccc3nnc(Sc4ccc5ncccc5c4)n3n2)cn1 [SGX-523],–,–,> 5000,–,–,> 5000,–,–,–,–,–
C/C(=C\c1csc(C)n1)[C@@H]1C[C@@H]2O[C@]2(C)CCC[C@H](C)[C@H](O)[C@@H](C)C(=O)C(C)(C)[C@@H](O)CC(=O)O1 [Patupilone],2.74,12.4,3.36,11.7,6.8,15.2,8.42,2.61,6.77,–,–
N[C@@H]1CCCN(c2c(/C=C3\SC(=O)NC3=O)cccc2-c2ccccc2)C1 [AZD1208],304,–,> 10000,–,–,–,–,–,–,–,–
CON(C)C(=O)N1N=C(c2cc(F)ccc2F)S[C@@]1(CCCN)c1ccccc1 [ARRY-520],3.14,5.25,–,3.86,10.2,3.25,22.9,2.57,–,> 1000,–
COc1cc2ncnc(Nc3ccc(F)c(Cl)c3)c2cc1NC(=O)/C=C/CN1CCCCC1 [Dacomitinib],–,–,–,–,–,–,–,–,–,404,–
Nc1nc(NC2CC2)cc(-c2cccc(Cl)c2Cl)n1 [TH588],7900,2180,6380,854,1550,2050,2120,809,1730,–,–
C[C@]12C=CC(=O)C=C1CC[C@@H]1[C@@H]2C(=O)C[C@@]2(C)[C@H]1CC[C@]2(O)C(=O)CO [Prednisone],–,–,–,–,–,–,–,–,–,–,> 10000
CCCCCOC(=O)Nc1nc(=O)n([C@@H]2O[C@H](C)[C@@H](O)[C@H]2O)cc1F [Capecitabine],2520,–,> 10000,–,–,> 10000,–,1630,1080,–,–
Cc1cc(Nc2cc(N3CCN(C)CC3)nc(Sc3ccc(NC(=O)C4CC4)cc3)n2)n[nH]1 [Tozasertib],46.3,–,283,51,636,193,–,50.2,349,–,–
CO[C@H]1C[C@@H]2CC[C@@H](C)[C@@](O)(O2)C(=O)C(=O)N2CCCC[C@H]2C(=O)O[C@H]([C@H](C)C[C@@H]2CC[C@@H](O)[C@H](OC)C2)CC(=O)[C@H](C)/C=C(\C)[C@@H](O)[C@@H](OC)C(=O)[C@H](C)C[C@H](C)/C=C/C=C/C=C/1C [Sirolimus],5,0.3,–,1.01,–,6.55,–,0.8,2.41,–,–
CC(C)N(CCCNC(=O)Nc1ccc(C(C)(C)C)cc1)C[C@H]1O[C@@H](n2cc(Br)c3c(N)ncnc32)[C@H](O)[C@@H]1O [SGC0946],–,–,–,–,–,–,–,–,2540,3660,–
